This assay concerns the target T1, Akt.
T1 construct: gene AKT1
Put plainly: Z'-LYTE fluorescence-based coupled-enzyme kinase assay. The class given is biochemical.

pIC50: −log10 of the molar value.

The term pIC50 denotes −log10 of the IC50, conventionally taken in molar units. The low end stands for a large IC50, the high end for a small IC50.

On to `Cc1ccc(C)c2c1CC(=Cc1ccc(C(C)C)cc1)C2=O` [FPMXY-14, 2-(4-isopropyl-benzylidene)-4,7-dimethyl-indan-1-one], for which the pIC50 is 6.83.

(Values after paper PMC10208040, “Computational docking and in vitro analysis identifies novel arylidene analogue FPMXY-14 against renal cancer cells by attenuating Akt” (Oncology Research, 2021).)
